pIC50: −log10 of the molar value.
Biological target: human IDO1 (Homo sapiens, UniProt P14902)
Test: Assessment of human IDO-1 inhibitory activity in HEK cells (human IDO1/HEK293 cells, kynurenine read-out with Ehrlich reagent, absorbance 490 nm)
Type: cell-based
Parameters: expressed in transfected cells
Settings: HEK Human IDO-1 cellular assay
How it was run: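 Kynurenine output from stably IDO1-transfected HEK293 cells (10,000/well, phenol red-free RPMI, 10% FBS) after 20 h compound exposure at 37 °C. The reaction was stopped with 0.2% TCA and heated 30 min at 50 °C, then the supernatant was mixed with Ehrlich reagent and read at 490 nm. IC50 was set against DMSO and a 500 nM reference standard as 0 and 100% inhibition.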

Chain of human IDO1 (P14902 whole entry): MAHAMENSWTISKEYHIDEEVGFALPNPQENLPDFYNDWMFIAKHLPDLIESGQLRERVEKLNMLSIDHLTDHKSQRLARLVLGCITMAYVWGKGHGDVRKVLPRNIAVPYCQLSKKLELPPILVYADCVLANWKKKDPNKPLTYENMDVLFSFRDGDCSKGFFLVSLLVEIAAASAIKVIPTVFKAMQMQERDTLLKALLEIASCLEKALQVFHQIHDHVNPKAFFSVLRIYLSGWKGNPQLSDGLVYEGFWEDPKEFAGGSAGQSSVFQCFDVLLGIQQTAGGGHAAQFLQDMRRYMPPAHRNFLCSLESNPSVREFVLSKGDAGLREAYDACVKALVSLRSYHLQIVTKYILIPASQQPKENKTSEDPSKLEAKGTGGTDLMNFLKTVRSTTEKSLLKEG

pIC50	SMILES
< 7.30	CCOc1ncc(Nc2cc(C(C)(C)CC(=O)O)ccc2N2C[C@@H](C)O[C@@H](C)C2)cn1 [Example 736, 3-(4-((2S,6R)-2,6-dimethylmorpholino)-3-((2-ethoxypyrimidin-5-yl)amino)phenyl)-3-methylbutanoic acid]
> 8.30	CCC(CC(=O)O)c1ccc(N(CC(C)C)C2CCCCC2)c(NC(=O)Cc2ccc(Cl)cc2F)c1 (single isomer, unassigned) [Example 1096 E2]
> 7.30	CCN(c1ccc([C@@H](COC)CC(=O)NS(C)(=O)=O)cc1Nc1ccc(C#N)cc1)C1CCOCC1 (stereo in doubt) [Example 1077, 3-(3-((4-Cyanophenyl)amino)-4-(ethyl(tetrahydro-2H-pyran-4-yl)amino)phenyl)-4-methoxy-N-(methylsulfonyl)butanamide]
> 8.30	CCN(c1ccc(C(C)(C)CC(=O)O)cc1Nc1ccc2c(c1)OC(F)(F)O2)C1CCOCC1 [Example 161, 3-(3-((2,2-difluorobenzo[d][1,3]dioxol-5-yl)amino)-4-(ethyl (tetrahydro-2H-pyran-4-yl)amino)phenyl)-3-methylbutanoic acid]
> 7.30	COCC(CC(=O)O)c1ccc(N(CC(C)C)C2CCOCC2)c(NC(=O)Nc2ccc(C)cc2)c1 (single isomer, unassigned) [Example 1216, 3-(4-(Isobutyl(tetrahydro-2H-pyran-4-yl)amino)-3-(3-(p-tolyl)ureido)phenyl)-4-methoxybutanoic acid]
> 7.30	CCc1cnc(Nc2cc([C@@H](CC)CC(=O)O)ccc2N(CC)C2CCOCC2)nc1 (single isomer, unassigned) [Example 457]
> 7.30	CCOc1ccc(Nc2cc(C(CC)CC(=O)O)ccc2N2CCOC[C@H]2C(C)C)cc1 (single isomer, unassigned) [Example 894]
> 7.30	CC[C@H](CC(=O)O)c1ccc(N(CC)C2CCOCC2)c(NC(=O)Nc2ccc(F)cc2)c1 (single isomer, unassigned) [Example 527]
> 7.30	CCOc1ccc(Nc2cc(C(C)CC(=O)O)ccc2N(CC(C)(C)O)C2CCCCC2)c(F)c1 (single isomer, unassigned) [Example 56, 3-(4-(cyclohexyl(2-hydroxy-2-methylpropyl)amino)-3-((4-ethoxy-2-fluorophenyl)amino)phenyl)butanoic acid]
> 7.30	COCC(CC(=O)O)c1ccc(N(CC(C)C)CC(C)C)c(NC(=O)Nc2ccc(C)cc2)c1 (racemic) [Example 992, (+/−)-3-(4-(Diisobutylamino)-3-(3-(p-tolyl)ureido)phenyl)-4-methoxybutanoic acid]
< 7.30	CCC(CC(=O)O)c1ccc(N2CCOC[C@H]2C(C)C)c(NC(=O)Nc2ccc(OC)cc2F)c1 (single isomer, unassigned) [Example 897]
> 8.30	CCC(CC(=O)O)c1ccc(N2CCC[C@@H]2C(C)(C)O)c(Nc2ccc(Cl)cc2)c1 (single isomer, unassigned) [Example 783]
> 7.30	CCOc1ncc(Nc2cc([C@@H](CC)CC(=O)O)ccc2N(CC)C2CCCCC2)cn1 (single isomer, unassigned) [Example 281]
< 7.30	CC[C@@H](CC(=O)O)c1ccc(N(CC)C2CCOCC2)c(NC(=O)Nc2ccc(Cl)nc2)c1 (single isomer, unassigned) [Example 495]
> 8.30	CC[C@H](CC(=O)O)c1ccc(N(CC)C2CCOCC2)c(Nc2ccc(Cl)cc2)c1 (single isomer, unassigned) [Example 499]
> 7.30	CCOc1ncc(Nc2cc(C(C)(C)CC(=O)O)ccc2N(CC)C2CCOCC2)cn1 [Example 159, 3-(3-((2-Ethoxypyrimidin-5-yl)amino)-4-(ethyl(tetrahydro-2H-pyran-4-yl)amino)phenyl)-3-methylbutanoic acid]
< 7.30	CCN(c1ccc([C@H](COC)CC(=O)O)cc1NC(=O)Nc1cc(C)on1)C1CCOCC1 (single isomer, unassigned) [Example 439]
> 8.30	CCC(CC(=O)O)c1ccc(N(CC(C)C)C2CCCCC2)c(NC(=O)Cc2ccc(Cl)cc2F)c1 (racemic) [Example 1085]
> 7.30	CCC(CC(=O)O)c1ccc(N(CC2CC2)C2CCOCC2)c(NC(=O)Nc2ccc(C)cc2)c1 (single isomer, unassigned) [Example 695, 3-(4-((Cyclopropylmethyl)(tetrahydro-2H-pyran-4-yl)amino)-3-(3-(p-tolyl)ureido)phenyl)pentanoic acid]
> 7.30	CCOc1ccc(NC(=O)Nc2cc(C(COC)CC(=O)O)cc(F)c2N(CC(C)C)CC(C)C)cc1 (single isomer, unassigned) [Example 1179, 3-(4-(Diisobutylamino)-3-(3-(4-ethoxyphenyl)ureido)-5-fluorophenyl)-4-methoxybutanoic acid]

Second part, the molecule before the results:

SMILES	pIC50
Cc1ccc(CC(=O)Nc2cc(C(C)CC(=O)O)ccc2N(CC(C)C)CC(C)C)cc1 (single isomer, unassigned) [Example 954, 3-(4-(Diisobutylamino)-3-(2-(p-tolyl)acetamido)phenyl)butanoic acid]	> 7.30
CCC(CC(=O)O)c1cc(NC(=O)Nc2ccc3c(c2)OCO3)c(N(CC(C)C)CC(C)C)cc1F (racemic) [Example 1134, (±)-3-(5-(3-(Benzo[d][1,3]dioxol-5-yl)ureido)-4-(diisobutylamino)-2-fluorophenyl)pentanoic acid]	> 8.30
CC[C@@H](CC(=O)O)c1ccc(N(CC(C)(C)O)C2CCCCC2)c(Nc2ccc(OC(F)F)cc2)c1 (single isomer, unassigned) [Example 226]	> 8.30
CCC(CC(=O)O)c1ccc(N(CC(C)C)C2CCCCC2)c(NC(=O)c2ccc(Oc3ccccc3)cc2)c1 (racemic) [Example 1074, 3-(4-(Cyclohexyl(isobutyl)amino)-3-(4-phenoxybenzamido)phenyl)pentanoic acid]	< 7.30
COCC(CC(=O)O)c1cc(F)c(N(CC(C)C)C2CCCCC2)c(NC(=O)Nc2ccc(OC(F)(F)F)cc2)c1 (single isomer, unassigned) [Example 1154, 3-(4-(cyclohexyl(isobutyl)amino)-3-fluoro-5-(3-(4-(trifluoromethoxy)phenyl)ureido)phenyl)-4-methoxybutanoic acid]	> 7.30
CCC(CC(=O)O)c1ccc(N(CC2CC2)C2CCOCC2)c(NC(=O)Nc2ccc(Cl)cc2F)c1 (single isomer, unassigned) [Example 696, 3-(3-(3-(4-Chloro-2-fluorophenyl)ureido)-4-((cyclopropylmethyl)(tetrahydro-2H-pyran-4-yl)amino)phenyl)pentanoic acid]	> 8.30
CCOc1ccc(CC(=O)Nc2cc(C(COC)CC(=O)O)ccc2N(CC(C)C)C2CCCCC2)cc1 (single isomer, unassigned) [Example 1241, 3-(4-(Cyclohexyl(isobutyl)amino)-3-(2-(4-ethoxyphenyl)acetamido)phenyl)-4-methoxybutanoic acid]	> 7.30
COCC(CC(=O)O)c1cc(F)c(N(CC(C)C)C2CCCCC2)c(NC(=O)Nc2cc(C)on2)c1 (single isomer, unassigned) [Example 1158, 3-(4-(cyclohexyl(isobutyl)amino)-3-fluoro-5-(3-(5-methylisoxazol-3-yl)ureido)phenyl)-4-methoxybutanoic acid]	> 7.30
CCc1ccc(Nc2cc([C@@H](CC)CC(=O)O)ccc2N(CC)C2CCOCC2)cc1 (single isomer, unassigned) [Example 477]	> 8.30
CCCN(CC1CC1)c1ccc(C(CC)CC(=O)O)cc1Nc1cnc(OCC)nc1 (single isomer, unassigned) [Example 657, 3-(4-((cyclopropylmethyl) (propyl)amino)-3-((2-ethoxypyrimidin-5-yl)amino)phenyl)pentanoic acid]	> 7.30
COCC(CC(=O)O)c1cc(F)c(N(CC(C)C)CC(C)C)c(NC(=O)Nc2cncnc2)c1 (single isomer, unassigned) [Example 1196, 3-(4-(Diisobutylamino)-3-fluoro-5-(3-(pyrimidin-5-yl)ureido)phenyl)-4-methoxybutanoic acid]	< 7.30
CCOc1cnc(Nc2cc(C(C)CC(=O)O)ccc2N(CC)C2CCOCC2)cn1 (single isomer, unassigned) [Example 618, 3-(3-((5-ethoxypyrazin-2-yl)amino)-4-(ethyl (tetrahydro-2H-pyran-4-yl)amino)phenyl)butanoic acid]	> 8.30
CC[C@@H](CC(=O)O)c1ccc(N(CC)C2CCOCC2)c(Nc2cnc(OC)nc2)c1 (single isomer, unassigned) [Example 479]	> 8.30
COCC(CC(=O)O)c1ccc(N(CC(C)C)C2CCCCC2)c(NC(=O)Cc2cc(C)on2)c1 (single isomer, unassigned) [Example 1234, 3-(4-(Cyclohexyl(isobutyl)amino)-3-(2-(5-methylisoxazol-3-yl)acetamido)phenyl)-4-methoxybutanoic acid]	< 7.30
CCCN(c1ccc([C@@H](CC)CC(=O)O)cc1Nc1ccc(Cl)cc1)C1CCOCC1 (single isomer, unassigned) [Example 541]	> 8.30
CCC(CC(=O)O)c1ccc(N(CC(C)C)C2CCCCC2)c(Nc2cnc(OC(C)C)nc2)c1 (single isomer, unassigned) [Example 648, 3-(4-(cyclohexyl(isobutyl)amino)-3-((2-isopropoxypyrimidin-5-yl)amino)phenyl)pentanoic acid]	> 8.30
CCCN(c1ccc([C@@H](COC)CC(=O)O)cc1Nc1cnc(OCC2CC2)nc1)C1CCOCC1 (single isomer, unassigned) [Example 563]	> 7.30
COCC(CC(=O)O)c1ccc(N(CC2CC2)C2CCOCC2)c(Nc2ccc(C#N)cc2)c1 (single isomer, unassigned) [Example 691, 3-(3-((4-cyanophenyl)amino)-4-((cyclopropylmethyl) (tetrahydro-2H-pyran-4-yl)amino)phenyl)-4-methoxybutanoic acid]	> 8.30
CC[C@@H](CC(=O)O)c1ccc(N2CCOC[C@@H]2C(C)C)c(NC(=O)Nc2ccc(OC)cc2F)c1 (single isomer, unassigned) [Example 76]	< 7.30

Reference: patent US9790169B2, “IDO inhibitors” (BRISTOL-MYERS SQUIBB COMPANY, priority 2015, dated 2017)
